Converted amounts (≈) assume the structure as drawn.
How the values were obtained:
Assay in all cases: CLSI broth microplate assay, MIC
Assay type in all cases: cell-based
MRSA strain EMRSA-15 = settings: Staphylococcus aureus, read-out: Minimum inhibitory concentration (MIC mg/L) EMRSA-15
MRSA strain EMRSA-16 = settings: Staphylococcus aureus, read-out: Minimum inhibitory concentration (MIC mg/L) EMRSA-16
MRSA strain BB568 = settings: Staphylococcus aureus, read-out: Minimum inhibitory concentration (MIC mg/L) BB568
[1] = tested on: community-associated MRSA isolate USA300; settings: Staphylococcus aureus, read-out: Minimum inhibitory concentration (MIC mg/L) USA300
[2] = tested on: S. aureus VISA strain Mu50; settings: Staphylococcus aureus, read-out: Minimum inhibitory concentration (MIC mg/L) Mu50
E. faecalis VRE1 = settings: Enterococcus faecalis, VRE1, read-out: Minimum inhibitory concentration (MIC mg/L) VRE1
E. faecium VRE10 = settings: Enterococcus faecium, VRE10, read-out: Minimum inhibitory concentration (MIC mg/L) VRE10

SMILES	MIC (MRSA strain EMRSA-15) [mg/L]	MIC (MRSA strain EMRSA-16) [mg/L]	MIC (MRSA strain BB568) [mg/L]	MIC [1] [mg/L]	MIC [2] [mg/L]	MIC (E. faecalis VRE1) [mg/L]	MIC (E. faecium VRE10) [mg/L]
COC(=O)c1cc(-c2ccc(NC(=O)c3cc(-c4ccc(NC(=O)CCCOc5cc6c(cc5OC)C(=O)N5CCC[C@H]5C=N6)cc4)co3)cc2)cn1C [Compound 56, (S)-methyl 4-(4-(4-(4-(4-((7-methoxy-5-oxo-2,3,5,11a-tetrahydro-1H-benzo[e]pyrrolo[1,2-a][1,4]diazepin-8-yl)oxy)butanamido)phenyl)furan-2-carboxamido)phenyl)-1-methyl-1H-pyrrole-2-carboxylate]	0.25 (≈ 0.343 µM)	0.5 (≈ 0.685 µM)	0.5 (≈ 0.685 µM)	1 (≈ 1.37 µM)	0.5 (≈ 0.685 µM)	0.5 (≈ 0.685 µM)	0.25 (≈ 0.343 µM)
COC(=O)c1cc(NC(=O)c2cc(NC(=O)c3cc(NC(=O)c4cc(NC(=O)c5cc(-c6ccc(NC(=O)CCCOc7cc8c(cc7OC)C(=O)N7CCC[C@H]7C=N8)cc6)cn5C)cn4C)cn3C)cn2C)cn1C [Compound 59]	2 (≈ 1.94 µM)	16 (≈ 15.5 µM)	16 (≈ 15.5 µM)	16 to 32 (≈ 15.5 to 31 µM)	4 (≈ 3.87 µM)	32 (≈ 31 µM)	4 (≈ 3.87 µM)

Reference: patent publication US9321774B2, “Pyrrolobenzodiazepines” (MEDIMMUNE LIMITED, priority 2012, dated 2016)
